This is an account of results in ChEMBL document CHEMBL3991601, “The target landscape of clinical kinase drugs” (Science, 2017).

Assay [1] deals with T1, Serine/threonine-protein kinase A-Raf (Homo sapiens, UniProt P10398).
T1 sequence (P10398 whole entry): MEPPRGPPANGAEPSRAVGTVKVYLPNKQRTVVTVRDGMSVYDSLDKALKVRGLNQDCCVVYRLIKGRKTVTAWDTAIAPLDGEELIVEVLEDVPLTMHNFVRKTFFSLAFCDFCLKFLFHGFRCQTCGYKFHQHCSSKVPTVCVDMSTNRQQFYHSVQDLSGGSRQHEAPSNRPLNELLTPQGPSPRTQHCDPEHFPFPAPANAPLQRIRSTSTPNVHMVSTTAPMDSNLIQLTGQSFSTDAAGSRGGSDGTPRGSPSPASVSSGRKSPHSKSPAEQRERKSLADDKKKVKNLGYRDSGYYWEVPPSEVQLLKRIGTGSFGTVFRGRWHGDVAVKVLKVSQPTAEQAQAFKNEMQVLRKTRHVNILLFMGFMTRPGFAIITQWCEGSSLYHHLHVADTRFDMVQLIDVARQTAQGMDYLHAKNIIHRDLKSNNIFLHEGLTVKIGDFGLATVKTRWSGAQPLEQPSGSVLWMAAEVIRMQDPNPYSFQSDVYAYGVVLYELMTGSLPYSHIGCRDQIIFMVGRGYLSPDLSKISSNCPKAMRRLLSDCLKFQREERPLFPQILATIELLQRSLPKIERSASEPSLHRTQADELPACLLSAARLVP

The target in assay [2] is Glycogen synthase kinase-3 beta (Homo sapiens, UniProt P49841).
Chain of Glycogen synthase kinase-3 beta (P49841 whole entry): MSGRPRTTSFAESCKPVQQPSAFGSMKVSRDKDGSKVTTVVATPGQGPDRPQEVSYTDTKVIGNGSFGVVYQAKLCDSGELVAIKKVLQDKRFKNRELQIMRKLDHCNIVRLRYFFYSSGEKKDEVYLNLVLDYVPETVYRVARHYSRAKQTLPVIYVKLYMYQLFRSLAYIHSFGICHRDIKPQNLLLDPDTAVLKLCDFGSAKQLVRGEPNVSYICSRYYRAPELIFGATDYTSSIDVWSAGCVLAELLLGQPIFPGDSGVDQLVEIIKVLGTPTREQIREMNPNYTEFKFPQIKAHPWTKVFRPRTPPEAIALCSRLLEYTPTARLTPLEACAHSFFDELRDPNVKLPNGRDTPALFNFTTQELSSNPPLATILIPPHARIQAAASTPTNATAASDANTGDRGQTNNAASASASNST
In assay [3] the target is T2, Structural maintenance of chromosomes protein 1A (Homo sapiens, UniProt Q14683).
T2 sequence (Q14683 whole entry): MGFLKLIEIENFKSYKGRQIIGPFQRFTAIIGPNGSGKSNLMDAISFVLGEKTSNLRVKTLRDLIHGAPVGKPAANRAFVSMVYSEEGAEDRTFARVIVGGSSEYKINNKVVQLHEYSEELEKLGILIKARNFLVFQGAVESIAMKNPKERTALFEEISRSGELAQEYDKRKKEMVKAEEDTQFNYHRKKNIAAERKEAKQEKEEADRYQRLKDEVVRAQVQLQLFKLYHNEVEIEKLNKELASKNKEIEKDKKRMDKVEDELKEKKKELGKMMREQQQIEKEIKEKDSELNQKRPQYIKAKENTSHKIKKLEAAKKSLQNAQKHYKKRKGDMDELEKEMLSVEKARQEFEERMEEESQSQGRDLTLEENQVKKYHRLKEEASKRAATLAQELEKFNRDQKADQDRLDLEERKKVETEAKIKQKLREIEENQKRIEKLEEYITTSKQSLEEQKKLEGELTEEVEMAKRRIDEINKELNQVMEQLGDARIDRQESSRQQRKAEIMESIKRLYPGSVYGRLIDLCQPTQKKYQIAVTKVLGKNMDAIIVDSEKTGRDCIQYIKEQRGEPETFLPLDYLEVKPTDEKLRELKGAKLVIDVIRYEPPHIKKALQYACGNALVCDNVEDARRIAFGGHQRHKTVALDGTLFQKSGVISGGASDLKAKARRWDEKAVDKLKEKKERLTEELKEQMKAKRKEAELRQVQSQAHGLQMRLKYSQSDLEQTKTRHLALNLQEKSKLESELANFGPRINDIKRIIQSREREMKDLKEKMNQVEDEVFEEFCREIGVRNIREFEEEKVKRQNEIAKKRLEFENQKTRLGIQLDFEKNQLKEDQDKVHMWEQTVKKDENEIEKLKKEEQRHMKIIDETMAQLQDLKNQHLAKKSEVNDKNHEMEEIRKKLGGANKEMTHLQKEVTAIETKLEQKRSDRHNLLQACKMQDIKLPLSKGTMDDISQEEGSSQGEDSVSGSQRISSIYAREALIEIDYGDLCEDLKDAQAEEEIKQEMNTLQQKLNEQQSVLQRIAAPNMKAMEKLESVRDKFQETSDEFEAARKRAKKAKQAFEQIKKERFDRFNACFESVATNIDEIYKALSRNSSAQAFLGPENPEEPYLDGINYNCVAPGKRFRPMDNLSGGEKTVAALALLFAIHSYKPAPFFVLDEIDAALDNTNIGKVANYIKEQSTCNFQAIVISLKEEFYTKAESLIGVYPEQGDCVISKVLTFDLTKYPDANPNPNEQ

Assay [4] deals with Atypical kinase COQ8A, mitochondrial (Homo sapiens, UniProt Q8NI60).
Chain of Atypical kinase COQ8A, mitochondrial (Q8NI60 whole entry): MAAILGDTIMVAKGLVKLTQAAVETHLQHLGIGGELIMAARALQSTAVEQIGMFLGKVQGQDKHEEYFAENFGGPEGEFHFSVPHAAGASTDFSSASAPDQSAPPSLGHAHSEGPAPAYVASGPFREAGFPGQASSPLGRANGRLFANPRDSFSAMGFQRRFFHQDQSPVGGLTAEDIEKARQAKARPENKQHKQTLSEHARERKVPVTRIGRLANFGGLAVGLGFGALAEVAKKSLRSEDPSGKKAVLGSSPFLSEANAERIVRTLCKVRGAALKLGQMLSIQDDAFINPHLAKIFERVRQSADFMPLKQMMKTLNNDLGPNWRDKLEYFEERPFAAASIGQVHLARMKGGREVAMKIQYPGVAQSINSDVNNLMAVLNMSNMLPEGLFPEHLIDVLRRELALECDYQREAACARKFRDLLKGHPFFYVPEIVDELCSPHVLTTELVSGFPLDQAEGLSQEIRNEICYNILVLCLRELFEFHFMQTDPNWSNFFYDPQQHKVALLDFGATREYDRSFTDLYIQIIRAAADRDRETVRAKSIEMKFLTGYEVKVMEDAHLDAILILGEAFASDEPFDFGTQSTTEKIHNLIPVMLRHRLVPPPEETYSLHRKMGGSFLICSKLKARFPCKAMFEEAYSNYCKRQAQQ
Another assay has as its target Activated CDC42 kinase 1 (Homo sapiens, UniProt Q07912).
The target of assay [5] is T3, Delta(24)-sterol reductase (Homo sapiens, UniProt Q15392).
T3 sequence (Q15392 whole entry): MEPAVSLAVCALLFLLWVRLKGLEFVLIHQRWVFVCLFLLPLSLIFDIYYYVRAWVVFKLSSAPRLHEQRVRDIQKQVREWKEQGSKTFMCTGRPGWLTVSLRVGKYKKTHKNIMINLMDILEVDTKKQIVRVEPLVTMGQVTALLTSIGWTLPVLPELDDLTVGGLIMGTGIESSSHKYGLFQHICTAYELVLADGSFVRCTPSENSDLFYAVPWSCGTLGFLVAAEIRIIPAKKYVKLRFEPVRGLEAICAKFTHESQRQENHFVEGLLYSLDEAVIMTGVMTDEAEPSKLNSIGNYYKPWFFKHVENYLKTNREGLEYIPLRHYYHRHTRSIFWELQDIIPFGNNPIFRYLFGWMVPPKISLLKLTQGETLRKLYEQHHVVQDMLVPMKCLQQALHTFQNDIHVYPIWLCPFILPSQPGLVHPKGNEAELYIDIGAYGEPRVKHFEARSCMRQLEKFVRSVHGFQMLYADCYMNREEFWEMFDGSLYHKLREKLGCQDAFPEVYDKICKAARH

For another assay, the target named is T4, Heme oxygenase 2 (Homo sapiens, UniProt P30519).
T4 sequence (P30519 whole entry): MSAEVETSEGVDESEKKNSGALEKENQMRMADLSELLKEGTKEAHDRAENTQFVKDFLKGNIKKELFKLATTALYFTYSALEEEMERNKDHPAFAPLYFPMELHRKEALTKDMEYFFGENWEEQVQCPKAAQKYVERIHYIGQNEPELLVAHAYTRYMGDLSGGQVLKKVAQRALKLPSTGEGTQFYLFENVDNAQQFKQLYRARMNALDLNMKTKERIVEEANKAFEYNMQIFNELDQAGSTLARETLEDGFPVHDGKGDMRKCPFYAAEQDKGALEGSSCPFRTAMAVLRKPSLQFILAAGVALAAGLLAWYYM

Structures are written as SMILES. Counter-ions that a name gives are not always drawn. Activity calls are given as the source filed them. A value given as a limit tells only on which side of the number the result lay.
Further: in the data inactive means no Kd found up to 30 µM.

Chain of Activated CDC42 kinase 1 (Q07912 whole entry): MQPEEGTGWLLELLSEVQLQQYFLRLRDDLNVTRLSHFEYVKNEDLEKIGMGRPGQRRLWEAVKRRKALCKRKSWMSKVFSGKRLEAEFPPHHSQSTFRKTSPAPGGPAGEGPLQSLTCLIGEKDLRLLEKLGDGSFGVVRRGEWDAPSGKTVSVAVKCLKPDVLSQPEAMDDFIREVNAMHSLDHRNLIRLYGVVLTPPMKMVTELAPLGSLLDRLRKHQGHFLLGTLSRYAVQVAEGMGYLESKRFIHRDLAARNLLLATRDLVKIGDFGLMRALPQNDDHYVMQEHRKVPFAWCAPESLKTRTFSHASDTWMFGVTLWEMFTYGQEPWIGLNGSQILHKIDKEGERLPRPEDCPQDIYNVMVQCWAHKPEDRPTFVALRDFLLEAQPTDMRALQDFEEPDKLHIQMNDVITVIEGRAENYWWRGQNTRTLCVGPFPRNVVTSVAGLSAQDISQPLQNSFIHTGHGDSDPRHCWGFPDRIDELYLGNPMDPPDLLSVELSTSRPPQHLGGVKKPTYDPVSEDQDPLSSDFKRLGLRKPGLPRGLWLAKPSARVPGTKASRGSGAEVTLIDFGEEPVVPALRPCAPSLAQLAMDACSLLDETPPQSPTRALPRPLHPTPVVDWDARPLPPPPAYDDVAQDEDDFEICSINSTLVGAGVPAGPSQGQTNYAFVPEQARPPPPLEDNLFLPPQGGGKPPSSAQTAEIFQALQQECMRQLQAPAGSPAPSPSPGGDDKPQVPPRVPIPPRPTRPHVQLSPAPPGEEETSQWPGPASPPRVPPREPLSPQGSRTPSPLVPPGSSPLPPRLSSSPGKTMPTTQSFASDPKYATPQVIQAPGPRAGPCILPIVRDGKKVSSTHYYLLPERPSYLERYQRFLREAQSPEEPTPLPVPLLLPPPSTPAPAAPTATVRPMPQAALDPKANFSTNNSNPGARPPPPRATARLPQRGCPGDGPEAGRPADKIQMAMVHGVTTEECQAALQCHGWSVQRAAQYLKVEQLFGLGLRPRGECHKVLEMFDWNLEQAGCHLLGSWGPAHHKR

The term Kd denotes the free concentration of one partner at which half of the binding sites on the other are occupied at equilibrium, for simple one-to-one binding. For `COc1cc2ncnc(Oc3cccc(NC(=O)Nc4cc(C(C)(C)C(F)(F)F)on4)c3)c2cc1OC` [CEP-32496], the Kd (in assay [1]; in assay [2]; in assay [3]; in assay [4]; on Activated CDC42 kinase 1; in assay [5]) was > 30 µM (inactive) in each case. Moreover, the Kd on Heme oxygenase 2 was > 30 µM (inactive).

As for `Cc1cc(Nc2ncc(Cl)c(Nc3ccccc3S(=O)(=O)C(C)C)n2)c(OC(C)C)cc1C1CCNCC1` [CERITINIB], the Kd in assay [1] was > 30 µM (inactive); in assay [2], > 30 µM (inactive); in assay [3], > 30 µM (inactive); in assay [4], > 30 µM (inactive); at Activated CDC42 kinase 1, 0.929 µM (active); in assay [5] it was > 30 µM (inactive). Further, the Kd at Heme oxygenase 2 was > 30 µM (inactive).

As to `COc1c(OCCCN2CCOCC2)ccc2c1N=C(NC(=O)c1cnc(N)nc1)N1CCN=C21` [COPANLISIB], the Kd (in assay [1]; in assay [2]; in assay [3]; in assay [4]; at Activated CDC42 kinase 1; in assay [5]) was > 30 µM (inactive) throughout. Moreover, the Kd on Heme oxygenase 2 is > 30 µM (inactive).

For `COCC(=O)NC/C=C/c1ccc2ncnc(Nc3ccc(Oc4ccc(C)nc4)c(C)c3)c2c1` [CP-724714], the Kd (in assay [1]; in assay [2]; in assay [3]; in assay [4]; at Activated CDC42 kinase 1; in assay [5]) was > 30 µM (inactive) throughout. The Kd on Heme oxygenase 2 is > 30 µM (inactive).

On to `CCS(=O)(=O)N1CCN(c2ccc(Nc3ncc(C(N)=O)c(NC4CC4)n3)cc2)CC1` [Cerdulatinib Hydrochloride], for which the Kd (in assay [1]; in assay [2]; in assay [3]; in assay [4]; on Activated CDC42 kinase 1; in assay [5]) was > 30 µM (inactive) in each case. Also, the Kd at Heme oxygenase 2 was > 30 µM (inactive).

For the compound `O=C(Nc1nc2cccc(-c3ccc(CN4CCS(=O)(=O)CC4)cc3)n2n1)C1CC1` [FILGOTINIB], the Kd (in assay [1]; in assay [2]; in assay [3]; in assay [4]; at Activated CDC42 kinase 1; in assay [5]) was > 30 µM (inactive) each time. Besides, the Kd at Heme oxygenase 2 is > 30 µM (inactive).

Regarding `Cc1cccc(-c2nn3c(c2-c2ccnc4ccc(C(N)=O)cc24)CCC3)n1` [GALUNISERTIB], the Kd in assay [1] is > 30 µM (inactive); in assay [2], > 30 µM (inactive); in assay [3], > 30 µM (inactive); in assay [4], 12.2 µM; at Activated CDC42 kinase 1 it was > 30 µM (inactive); in assay [5], > 30 µM (inactive). At Heme oxygenase 2, the Kd is > 30 µM (inactive).

For the compound `CCn1cc(-c2ccnc3[nH]c(-c4cccc(CN(C)C)c4)cc23)c(-c2ccc(NC(=O)N(C)C)cc2)n1` [GSK-1070916], the Kd (in assay [1]; in assay [2]; in assay [3]; in assay [4]; at Activated CDC42 kinase 1; in assay [5]) was > 30 µM (inactive) each time. For the same compound, at Heme oxygenase 2, the Kd is > 30 µM (inactive).

As for `COc1ccc(S(=O)(=O)N(C(C)=O)c2ccccc2/C=C/c2cc[n+]([O-])cc2)cc1` [HMN-214], the Kd (in assay [1]; in assay [2]; in assay [3]; in assay [4]; on Activated CDC42 kinase 1; in assay [5]) was > 30 µM (inactive) throughout. Also, the Kd on Heme oxygenase 2 is > 30 µM (inactive).

Turning to `O=C(Nc1cc(C(F)(F)F)cc(C(F)(F)F)c1)c1cc(Cl)ccc1O` [IMD-0354], the Kd (in assay [1]; in assay [2]; in assay [3]; in assay [4]; at Activated CDC42 kinase 1; in assay [5]) was > 30 µM (inactive) in each case. Further, the Kd on Heme oxygenase 2 was > 30 µM (inactive).

On to `CNC(=O)c1cccc2cc(Oc3ccnc4cc(OCC5(N)CC5)c(OC)cc34)ccc12` [LUCITANIB], for which the Kd (in assay [1]; in assay [2]; in assay [3]; in assay [4]; at Activated CDC42 kinase 1; in assay [5]) was > 30 µM (inactive) throughout. At Heme oxygenase 2, the Kd is > 30 µM (inactive).

Consider `CNC(=O)c1nn(C)c2c1C(C)(C)Cc1cnc(Nc3ccc(N4CCN(C)CC4)cc3)nc1-2` [MILCICLIB], for which the Kd in assay [1] was > 30 µM (inactive); in assay [2] it was > 30 µM (inactive); in assay [3] it was > 30 µM (inactive); in assay [4] it was 3.01 µM (active); on Activated CDC42 kinase 1, 0.9 µM (active); in assay [5] it was > 30 µM (inactive). Also, at Heme oxygenase 2, the Kd is > 30 µM (inactive).

For the compound `CN(C[C@@H]1COCCO1)S(=O)(=O)Nc1ccc2ccc3ncc(-c4cnn(C)c4)cc3c(=O)c2c1` [MK-2461], the Kd (in assay [1]; in assay [2]; in assay [3]; in assay [4]; at Activated CDC42 kinase 1; in assay [5]) was > 30 µM (inactive) in each case. For the same compound, the Kd on Heme oxygenase 2 is > 30 µM (inactive).

As to `Cn1cc(-c2cnc3ccc4ccc(CS(=O)(=O)NCc5ccccn5)cc4c(=O)c3c2)cn1` [MK-8033], the Kd (in assay [1]; in assay [2]; in assay [3]; in assay [4]; at Activated CDC42 kinase 1; in assay [5]) was > 30 µM (inactive) each time. The Kd on Heme oxygenase 2 is > 30 µM (inactive).
